From PubChem BioAssay (NCI)
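Protocol summary: plate cells (96-well), add compound at 5 concentrations, incubate 48 h, interpolate endpoints linearly. GI50 marks 50% less growth. TGI is the concentration that stops growth completely.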

Tests used:
Test in all cases: NCI anticancer screen, dose series, 48 h
[1] = system: 786-0 renal
[2] = system: A498 renal
[3] = system: A549 NSCLC
[4] = system: ACHN renal
[5] = system: BT-549 breast
[6] = system: CAKI-1 renal
[7] = system: CCRF-CEM leukemia
[8] = system: COLO 205 colon
[9] = system: DU-145 prostate
[10] = system: EKVX NSCLC
[11] = system: HCC-2998 colon
[12] = system: HCT-116 colon
[13] = system: HCT-15 colon
[14] = system: HL-60(TB) leukemia
[15] = system: HOP-62 NSCLC
[16] = system: HOP-92 NSCLC
[17] = system: HS 578T breast
[18] = system: HT29 colon
[19] = system: IGROV1 ovarian
[20] = system: K-562 leukemia
[21] = system: KM12 colon
[22] = system: LOX IMVI melanoma
[23] = system: M14 melanoma
[24] = system: MALME-3M melanoma
[25] = system: MCF7 breast
[26] = system: MDA-MB-231 breast
[27] = system: MDA-MB-435
[28] = system: MDA-MB-468 breast
[29] = system: MOLT-4 leukemia

COc1ccc(C(=O)/C=C/c2cccc(Cl)c2)cc1S(N)(=O)=O
GI50 [1]: 1.57 µM
TGI [1]: 3.49 µM
GI50 [2]: 16.3 µM
TGI [2]: 30.5 µM
GI50 [3]: 2.5 µM
TGI [3]: 10.2 µM
GI50 [4]: 1.75 µM
TGI [4]: 3.23 µM
GI50 [5]: 1.65 µM
TGI [5]: 4.18 µM
GI50 [6]: 2.4 µM
TGI [6]: 9.07 µM
GI50 [7]: 3.11 µM
TGI [7]: 8.69 µM
GI50 [8]: 1.81 µM
TGI [8]: 3.41 µM
GI50 [9]: 3.52 µM
TGI [9]: 12.2 µM
GI50 [10]: 4.16 µM
TGI [10]: 16.7 µM
GI50 [11]: 1.6 µM
TGI [11]: 3.06 µM
GI50 [12]: 1.21 µM
TGI [12]: 2.52 µM
GI50 [13]: 1.14 µM
TGI [13]: 2.59 µM
GI50 [14]: 1.9 µM
TGI [14]: 5.72 µM
GI50 [15]: 2.2 µM
TGI [15]: 6.43 µM
GI50 [16]: 2.28 µM
TGI [16]: 18.6 µM
GI50 [17]: 10.7 µM
TGI [17]: 50.9 µM
GI50 [18]: 1.7 µM
TGI [18]: 3.4 µM
GI50 [19]: 2.48 µM
TGI [19]: 9.06 µM
GI50 [20]: 2.13 µM
TGI [20]: > 100 µM
GI50 [21]: 1.61 µM
TGI [21]: 3.75 µM
GI50 [22]: 1.3 µM
TGI [22]: 2.57 µM
GI50 [23]: 2.13 µM
TGI [23]: 6.93 µM
GI50 [24]: 3.56 µM
TGI [24]: 15.1 µM
GI50 [25]: 1.97 µM
TGI [25]: 6.99 µM
GI50 [26]: 2.26 µM
TGI [26]: 5.9 µM
GI50 [27]: 3.2 µM
TGI [27]: 12.1 µM
GI50 [28]: 1.41 µM
TGI [28]: 2.93 µM
GI50 [29]: 2.38 µM
TGI [29]: 6.15 µM
